Measurements published in ChEMBL document CHEMBL3045799, “Effect of Candidatus Liberibacter asiaticus infection on susceptibility of Asian citrus psyllid, Diaphorina citri, to selected insecticides” (2011).

Legend:
Type in all cases: functional
Diaphorina citri [1] = experiment: Insecticidal activity against Diaphorina citri infected with Candidatus Liberibacter asiaticus assessed as mortality after 48 hr
Diaphorina citri [2] = experiment: Selectivity ratio of LC50 for Diaphorina citri to LC50 for Diaphorina citri infected with Candidatus Liberibacter asiaticus
Diaphorina citri [3] = experiment: Insecticidal activity against Diaphorina citri assessed as mortality after 48 hr

Structure (SMILES)	LC50 (Diaphorina citri [1]) [mgAi/L]	RatioLC50 (Diaphorina citri [2])	LC50 (Diaphorina citri [3]) [mgAi/L]
CCO[C@@H]1[C@@H](OC)[C@H](C)O[C@@H](O[C@@H]2C[C@H]3CC[C@@H]4[C@@H](C=C5C(=O)[C@H](C)[C@@H](O[C@H]6CC[C@H](N(C)C)[C@@H](C)O6)CCC[C@H](CC)OC(=O)C[C@H]54)[C@@H]3C2)[C@@H]1OC.CCO[C@@H]1[C@@H](OC)[C@H](C)O[C@@H](O[C@H]2C[C@H]3[C@@H]4C=C5C(=O)[C@H](C)[C@@H](O[C@H]6CC[C@H](N(C)C)[C@@H](C)O6)CCC[C@H](CC)OC(=O)C[C@H]5[C@@H]4C=C(C)[C@@H]3C2)[C@@H]1OC	0.2	1.2	0.48
CCOP(=S)(OCC)Oc1nc(Cl)c(Cl)cc1Cl [CHLORPYRIFOS]	0.28	2.8	0.78
CC1(C)C(C(=O)OC(C#N)c2cccc(Oc3ccccc3)c2)C1(C)C (configuration not stated) [FENPROPATHRIN]	0.05	1.2	0.06
O=[N+]([O-])/N=C1\NCCN1Cc1ccc(Cl)nc1 [IMIDACLOPRID]	0.15	3.1	0.47
